Data: patent US20230203031A1, “COMPOUNDS USEFUL FOR INHIBITING CDK7” (Eli Lilly and Company, priority 2020, published 2023)

What was measured:
[1] = test system: panel of 468 human kinases; test: DiscoverX KINOMEscan selectivity profiling, 468 kinase panel; type: binding; settings: CDK7 the only kinase with less than 35% control activity at 0.2 µM
Method: (§1) The purpose of the study is to generate an in vitro selectivity profile of the compounds of Example 8. To address selectivity, the compound of Example 8 is tested in a panel of 468 human kinases at DiscoverX Corporation using the KINOMEscan™ screening platform. KINOMEscan™ employs a novel and proprietary active site-directed competition binding assay to quantitatively measure interactions between test compounds and more than 450 human kinases and disease relevant mutant variants.
(§2) Compounds that bind the kinase active site and directly (sterically) or indirectly (allosterically) prevent kinase binding to an immobilized ligand, will reduce the amount of kinase captured on the solid support. […] Compound activity is monitored by measuring the amount of kinase captured in test versus control samples by using a qPCR method that detects the associated DNA label. Further information regarding the DiscoverX Corporation KINOMEscan™ screening platform can be found at http://www.discoverx.com.
(§3) Assays to monitor binding to a 468 kinase panel were conducted at DiscoverXⓇ Corporation (Fremont, CA). Example 8 is tested at 20 µM, 2 µM, and 0.2 µM final concentrations. Kinases are tagged with DNA for qPCR detection. […] The kinase concentration in the eluates is measured by qPCR. […]

CDK7 = target: T1, CDK7 (Homo sapiens, UniProt P50613); test: DiscoverX KINOMEscan competition binding, CDK7; settings: 0.2 µM compound
T1 construct: purchased DiscoverX Corporation (KINOMEscan service)
Method: as §1, §2, §3

A2780 = test: Cell proliferation assay (CELL TITER GLO), A2780; type: cell-based; settings: Homo sapiens, 168 h; A2780 ovarian cancer, seven days after compound addition
Method: Cell lines are plated at the density 5000 cells per well in 100 µL per well growth medium into a white 96-well cell culture plate. See Table 1 for cell line and culture medium information. Plates are incubated at 37° C. and 5% CO2. The following day, a serial dilution of the test compound is prepared by diluting the compound 1:3 in DMSO for 10 points. The DMSO plate is 1000X the final concentration. In addition to the CDK7 inhibitor, a DMSO alone column is included as a maximum growth control and 10 µM staurosporine final column is included as a maximum growth inhibition control. A 10X dilution plate is then prepared by adding 2 µL per well from the 1000X DMSO plate to 198 µL per well of OMEM (Life Technologies, Carlsbad, CA, cat#31985-070). Cells are treated with indicated compound by adding 11 µL per well from the 10X OMEM plate to the cell plate containing 100 µL per well growth medium for a 1X final concentration. Plates are placed back into the incubator at 37° C. and 5% CO2. Six or seven days after compound addition, for HCC1806 or A2780 cells respectively, plates are removed from the incubator and allowed to equilibrate to RT. […] After 15 minute incubation on shaker, luminescence is read, 1 second per well, using a Wallac VICTOR2™. […]

T1 sequence (P50613 whole entry): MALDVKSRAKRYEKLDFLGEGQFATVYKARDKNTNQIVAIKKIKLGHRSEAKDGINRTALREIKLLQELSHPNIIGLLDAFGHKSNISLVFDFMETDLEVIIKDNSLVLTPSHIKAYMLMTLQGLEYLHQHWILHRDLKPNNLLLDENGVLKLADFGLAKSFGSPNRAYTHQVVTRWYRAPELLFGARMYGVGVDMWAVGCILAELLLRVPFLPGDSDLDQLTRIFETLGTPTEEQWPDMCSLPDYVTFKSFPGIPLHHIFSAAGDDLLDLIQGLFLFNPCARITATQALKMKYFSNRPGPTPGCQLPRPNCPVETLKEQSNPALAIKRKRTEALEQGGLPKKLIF

IC50 (A2780) | Structure (SMILES) | selectivity against the 468 protein kinases panel [1] | remaining binding at 0.2 µM (CDK7; read-out: % control activity against CDK7) | inhibition at 0.2 µM (CDK7; read-out: inhibition against CDK7)
 | C=CC(=O)N1CCO[C@H](CN2CCC(Nc3cc(C(F)(F)F)cn4c(C(C)C)cnc34)CC2)C1 [Example 8, 1-[(2R)-2-[[4-[[3-isopropyl-6-(trifluoromethyl)imidazo[1,2-a]pyridin-8-yl]amino]-1-piperidyl]methyl]morpholin-4-yl]prop-2-en-1-one] | excellent selectivity | ~4% | ~96%
22.8 nM | C=CC(=O)N1CCO[C@H](CN2CCC(Nc3cc(C(C)F)cn4c(C(C)C)cnc34)CC2)C1 (single isomer, unassigned) [Example 1] |  |  | 
